US10736883B2, “Triazole furan compounds as agonists of the APJ receptor” (AMGEN INC., priority 2016, dated 2020)
pEC50: −log10 of the molar value.

The molecules below were run against APJ receptor (Homo sapiens (Human), UniProt P35414) (assay: [35S]GTPγS binding assay on membranes from CHO cells stably expressing human APJ receptor). Conditions: membranes of CHO cells stably expressing human APJ receptor, means of several independent experiments, read-out: Activity hAPJ SPA EC50 IP.
Assay type: biochemical
How it was run: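 EC50 values were obtained by non-linear regression of [35S]GTPγS (0.2 nM) binding after 90 min at RT, with nonspecific binding defined by 100 μM GTPγS. Reactions used human APJ–expressing CHO cell membranes on WGA PS beads in HEPES pH 7.5 buffer with 5 mM MgCl2, 200 mM NaCl, 3 μM GDP and 0.1% BSA.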

APJ receptor, sequence (P35414 whole entry): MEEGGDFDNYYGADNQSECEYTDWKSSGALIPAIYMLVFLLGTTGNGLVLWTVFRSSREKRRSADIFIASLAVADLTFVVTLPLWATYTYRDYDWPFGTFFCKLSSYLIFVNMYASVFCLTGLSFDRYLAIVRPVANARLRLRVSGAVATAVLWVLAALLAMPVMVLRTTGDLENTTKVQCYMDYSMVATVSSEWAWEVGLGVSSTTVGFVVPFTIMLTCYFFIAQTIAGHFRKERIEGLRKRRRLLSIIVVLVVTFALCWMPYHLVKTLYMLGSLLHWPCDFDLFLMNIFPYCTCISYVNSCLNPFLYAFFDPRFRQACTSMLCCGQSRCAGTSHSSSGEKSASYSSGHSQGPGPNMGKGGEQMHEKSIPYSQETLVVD

pEC50 | Molecule
9.26 | COc1cccc(OC)c1-n1c(NS(=O)(=O)[C@H]2C[C@@H](O)CN(c3nc(C)cc(C)n3)C2)nnc1-c1ccc(C)o1 (single isomer, unassigned) [Example 336.0, (3S,5R)—N-(4-(2,6-Dimethoxyphenyl)-5-(5-methylfuran-2-yl)-4H-1,2,4-triazol-3-yl)-1-(4,6-dimethylpyrimidin-2-yl)-5-hydroxypiperidine-3-sulfonamide or (3R,5S)—N-(4-(2,6-dimethoxyphenyl)-5-(5-methylfuran-2-yl)-4H-1,2,4-triazol-3-yl)-1-(4,6-dimethylpyrimidin-2-yl)-5-hydroxypiperidine-3-sulfonamide]
9.33 | COCC[C@@H](Cc1ncc(C)cn1)S(=O)(=O)Nc1nnc(-c2ccc(C)o2)n1-c1c(OC)cccc1OC (single isomer, unassigned) [Example 71.0, (2R)—N-(4-(2,6-Dimethoxyphenyl)-5-(5-methyl-2-furanyl)-4H-1,2,4-triazol-3-yl)-4-methoxy-1-(5-methyl-2-pyrimidinyl)-2-butanesulfonamide or (2S)—N-(4-(2,6-dimethoxyphenyl)-5-(5-methyl-2-furanyl)-4H-1,2,4-triazol-3-yl)-4-methoxy-1-(5-methyl-2-pyrimidinyl)-2-butanesulfonamide]
8.52 | COc1cccc(OC)c1-n1c(NS(=O)(=O)[C@H]2C[C@H](OC)CN(c3ncc(F)cn3)C2)nnc1-c1ccco1 (single isomer, unassigned) [Example 178.0]
9.66 | COc1cccc(OC)c1-n1c(NS(=O)(=O)[C@@H](CCO)[C@H](C)c2ncc(C)cn2)nnc1-c1ccc(C)o1 (single isomer, unassigned) [Example 62.0]
8.60 | COc1cccc(OC)c1-n1c(NS(=O)(=O)[C@H](C)[C@H](O)c2cn3ccccc3n2)nnc1-c1ccc(C)o1 (racemic) [Example 285.0, (1R,2R)—N-(4-(2,6-Dimethoxyphenyl)-5-(5-methyl-2-furanyl)-4H-1,2,4-triazol-3-yl)-1-hydroxy-1-imidazo[1,2-a]pyridin-2-yl-2-propanesulfonamide and (1S,2S)—N-(4-(2,6-dimethoxyphenyl)-5-(5-methyl-2-furanyl)-4H-1,2,4-triazol-3-yl)-1-hydroxy-1-imidazo[1,2-a]pyridin-2-yl-2-propanesulfonamide]
9.85 | COc1cccc(OC)c1-n1c(NS(=O)(=O)[C@H](C)Cc2ccc(Cl)cn2)nnc1-c1ccco1 (single isomer, unassigned) [Example 11.0, (2R)-1-(5-chloro-2-pyridinyl)-N-(4-(2,6-dimethoxyphenyl)-5-(2-furanyl)-4H-1,2,4-triazol-3-yl)-2-propanesulfonamide or (2S)-1-(5-chloro-2-pyridinyl)-N-(4-(2,6-dimethoxyphenyl)-5-(2-furanyl)-4H-1,2,4-triazol-3-yl)-2-propanesulfonamide]
6.68 | C[C@@H](Cc1ncc(F)cn1)S(=O)(=O)Nc1nnc(-c2ccco2)n1-c1ccccc1F (racemic) [Example 312.0, (2R)—N-(4-(2-Fluorophenyl)-5-(2-furanyl)-4H-1,2,4-triazol-3-yl)-1-(5-fluoro-2-pyrimidinyl)-2-propanesulfonamide and (2S)—N-(4-(2-fluorophenyl)-5-(2-furanyl)-4H-1,2,4-triazol-3-yl)-1-(5-fluoro-2-pyrimidinyl)-2-propanesulfonamide]
8.24 | COc1cccc(OC)c1-n1c(NS(=O)(=O)[C@H](C)[C@@H](O)c2cnc3ccccn23)nnc1-c1ccc(C)o1 (single isomer, unassigned) [Example 294.0, (1R,2S)—N-(4-(2,6-Dimethoxyphenyl)-5-(5-methyl-2-furanyl)-4H-1,2,4-triazol-3-yl)-1-hydroxy-1-imidazo[1,2-a]pyridin-3-yl-2-propanesulfonamide or (1S,2R)—N-(4-(2,6-dimethoxyphenyl)-5-(5-methyl-2-furanyl)-4H-1,2,4-triazol-3-yl)-1-hydroxy-1-imidazo[1,2-a]pyridin-3-yl-2-propanesulfonamide]
9.02 | COc1cccc(OC)c1-n1c(NS(=O)(=O)[C@@H](C)Cc2ncc(F)c3[nH]cnc23)nnc1-c1ccco1 (single isomer, unassigned) [Example 5.0, (2S)—N-(4-(2,6-dimethoxyphenyl)-5-(2-furanyl)-4H-1,2,4-triazol-3-yl)-1-(7-fluoro-1H-imidazo[4,5-c]pyridin-4-yl)-2-propanesulfonamide or (2R)—N-(4-(2,6-dimethoxyphenyl)-5-(2-furanyl)-4H-1,2,4-triazol-3-yl)-1-(7-fluoro-1H-imidazo[4,5-c]pyridin-4-yl)-2-propanesulfonamide]
8.55 | COc1cccc(OC)c1-n1c(NS(=O)(=O)[C@@H]2C[C@H]2c2ccc(Cl)cc2)nnc1-c1ccco1 (single isomer, unassigned) [Example 192.0, (1R,2S)-2-(4-Chlorophenyl)-N-(4-(2,6-dimethoxyphenyl)-5-(2-furanyl)-4H-1,2,4-triazol-3-yl)cyclopropanesulfonamide or (1S,2R)-2-(4-chlorophenyl)-N-(4-(2,6-dimethoxyphenyl)-5-(2-furanyl)-4H-1,2,4-triazol-3-yl)cyclopropanesulfonamide]
9.40 | CCc1ccc(-c2nnc(NS(=O)(=O)[C@@H](C)Cc3ncc(F)cn3)n2-c2c(OC)cccc2OC)o1 (single isomer, unassigned) [Example 97.0, (2S)—N-(4-(2,6-Dimethoxyphenyl)-5-(5-ethyl-2-furanyl)-4H-1,2,4-triazol-3-yl)-1-(5-fluoro-2-pyrimidinyl)-2-propanesulfonamide or (2R)—N-(4-(2,6-dimethoxyphenyl)-5-(5-ethyl-2-furanyl)-4H-1,2,4-triazol-3-yl)-1-(5-fluoro-2-pyrimidinyl)-2-propanesulfonamide]
7.48 | COc1cccc(OC)c1-n1c(NS(=O)(=O)[C@@H](C)[C@@H](O)c2cn3ccccc3n2)nnc1-c1ccc(C)o1 (single isomer, unassigned) [Example 308.0, (1S,2S)—N-(4-(2,6-Dimethoxyphenyl)-5-(5-methyl-2-furanyl)-4H-1,2,4-triazol-3-yl)-1-hydroxy-1-imidazo[1,2-a]pyridin-2-yl-2-propanesulfonamide or (1R,2R)—N-(4-(2,6-dimethoxyphenyl)-5-(5-methyl-2-furanyl)-4H-1,2,4-triazol-3-yl)-1-hydroxy-1-imidazo[1,2-a]pyridin-2-yl-2-propanesulfonamide]
7.48 | COC[C@H]1CCCC(=O)N1C[C@@H](C)S(=O)(=O)Nc1nnc(-c2ccc(C)o2)n1-c1c(OC)cccc1OC (single isomer, unassigned) [Example 185.0]
9.46 | (1R,2R)-N-(4-(2,6-dimethoxyphenyl)-5-(5-methyl-2-furanyl)-4H-1,2,4-triazol-3-yl)-1-methoxy-1-(5-methyl-2-pyrimidinyl)-2-propanesulfonamide or (1S,2S)-N-(4-(2,6-dimethoxyphenyl)-5-(5-methyl-2-furanyl)-4H-1,2,4-triazol-3-yl)-1-methoxy-1-(5-methyl-2-pyrimidinyl)-2-propanesulfonamide [Example 226.0]
9.92 | (1S,2R)-N-(4-(2,6-dimethoxyphenyl)-5-(5-methyl-2-furanyl)-4H-1,2,4-triazol-3-yl)-1-hydroxy-1-(5-methyl-2-pyrazinyl)-2-propanesulfonamide or (1R,2S)-N-(4-(2,6-dimethoxyphenyl)-5-(5-methyl-2-furanyl)-4H-1,2,4-triazol-3-yl)-1-hydroxy-1-(5-methyl-2-pyrazinyl)-2-propanesulfonamide [Example 213.0]
8.38 | COc1cccc(OC)c1-n1c(NS(=O)(=O)[C@H](C)[C@@H](O)c2ncn3ccccc23)nnc1-c1ccc(C)o1 (single isomer, unassigned) [Example 288.0, (1R,2S)—N-(4-(2,6-Dimethoxyphenyl)-5-(5-methyl-2-furanyl)-4H-1,2,4-triazol-3-yl)-1-hydroxy-1-imidazo[1,5-a]pyridin-1-yl-2-propanesulfonamide or (1S,2R)—N-(4-(2,6-dimethoxyphenyl)-5-(5-methyl-2-furanyl)-4H-1,2,4-triazol-3-yl)-1-hydroxy-1-imidazo[1,5-a]pyridin-1-yl-2-propanesulfonamide]
9.36 | COc1cccc(OC)c1-n1c(NS(=O)(=O)C[C@@](C)(F)c2ncc(C#N)cn2)nnc1-c1ccc(C)o1 (single isomer, unassigned) [Example 231.0, (2S)-2-(5-Cyano-2-pyrimidinyl)-N-(4-(2,6-dimethoxyphenyl)-5-(5-methyl-2-furanyl)-4H-1,2,4-triazol-3-yl)-2-fluoro-1-propanesulfonamide or (2R)-2-(5-cyano-2-pyrimidinyl)-N-(4-(2,6-dimethoxyphenyl)-5-(5-methyl-2-furanyl)-4H-1,2,4-triazol-3-yl)-2-fluoro-1-propanesulfonamide]

Molecule | pEC50
COc1cccc(OC)c1-n1c(NS(=O)(=O)[C@H](C)[C@H](O)c2cccc(C)n2)nnc1-c1ccc(C)o1 (stereo in doubt) [Example 87.0] | 9.39
COc1cccc(OC)c1-n1c(NS(=O)(=O)[C@@H]2COCC[C@@H]2O)nnc1-c1ccc(C)o1 (single isomer, unassigned) [Example 403.0] | 7.24
COc1cccc(OC)c1-n1c(NS(=O)(=O)[C@@H](C)[C@H](C)c2ncc(C)cn2)nnc1-c1ccc(C)o1 [Example 262.0, (2S,3R)-N-(4-(2,6-dimethoxyphenyl)-5-(5-methylfuran-2-yl)-4H-1,2,4-triazol-3-yl)-3-(5-methylpyrimidin-2-yl)butane-2-sulfonamide] | 10.15
COc1cccc(OC)c1-n1c(NS(=O)(=O)[C@H](C)Cc2ncc(Br)cn2)nnc1-c1ccco1 (single isomer, unassigned) [Example 36.0, (2R)-1-(5-bromo-2-pyrimidinyl)-N-(4-(2,6-dimethoxyphenyl)-5-(2-furanyl)-4H-1,2,4-triazol-3-yl)-2-propanesulfonamide or (2S)-1-(5-bromo-2-pyrimidinyl)-N-(4-(2,6-dimethoxyphenyl)-5-(2-furanyl)-4H-1,2,4-triazol-3-yl)-2-propanesulfonamide] | 8.46
